Results: patent US5486624A (Pacific Corporation, priority 1994, dated 1996)

Key:
tyrosinase [1] = conditions: prior art statement; cited from earlier work
[2] = DPPH (diphenylpicrylhydrazyl) radical-scavenging test; conditions: for IC50: DPPH 100 μM in ethanol, 37° C., 30 minutes, 515 nm, read-out: IC50 (concentration of test compound which scavenges the radical DPPH by 50%)
Procedure: Harmful radical-scavenging activities of the compounds of Examples 1 and 2 were compared with those of conventional anti-oxidants using a DPPH (diphenylpicrylhydrazyl) radical-scavenging test as follows:
DPPH was dissolved into ethanol to a concentration of 100 μM. A series of dilutions of compounds of Examples 1 and 2, vitamin C, vitamin E or hydroquinone were prepared. Ethanol and water were used to dilute the test compounds. As a control, a 1:1 mixture of ethanol and water was used. The series of dilutions of each test compound were mixed with 1,900 μl of DPPH solution and the dilution solvent was added to 2.0 ml. The resulting mixture was reacted in an incubator at 37° C. for 30 minutes. Absorbance was measured at 515 nm. The radical-scavenging activities of the compounds of Examples 1 and 2 and conventional anti-oxidants were calculated by the following equation: [formula]
IC50, i.e., the concentration of test compound which scavenge the radical, DPPH by 50% was calculated by the serial dilution method for each test compound.

Tyrosinase [3] = experiment: Tyrosinase-inhibiting activity; format: biochemical, mushroom; conditions: for IC50: mushroom tyrosinase, tyrosine, pH 6.8, 37° C., 10 minutes, 475 nm, read-out: IC50 (concentration of test compound which inhibits tyrosinase by 50%); for tyrosinase inhibition activity, fold higher than that of kojic acid: relative to kojic acid, in terms of IC50
Procedure: Tyrosinase, which was extracted from mushroom, was purchased from SIGMA. […] Ethanol and water were used to dilute the test compounds. As a control, 0.9 ml of a 1:1 mixture of ethanol and water was used. […] The test tube was quickly cooled in an ice water bath to stop the reaction, and absorbance was measured at 475 nm. […] IC50, i.e., the concentration of test compound which inhibits tyrosinase by 50% was calculated by serial dilution for each test compound.

human skin = experiment: human body patch test (skin safety); format: in vivo; conditions: for number of positive subjects/the number of total subjects: cream with 0.2 wt. % compound, 20 μl plaster, 30 volunteers; for safety to human skin (in words): overall conclusion
Procedure: In order to examine the safety of the compounds of Examples 1 and 2, a human body patch test was carried out as follows:
The brachium of thirty(30) healthy volunteers (15 females and 15 males) was thoroughly washed with 70% ethanol and applied with a plaster containing 20 μl of a conventional creamy preparation incorporating 0.2 wt. % of one of the compounds of Examples 1 and 2. The plaster was thoroughly bonded to the brachium using an adhesive tape. 48 hours later, the tape and chamber were removed, and the adherent site of the arm was wiped with a gauze to remove any remaining preparation. […] 48 hours later, the site was examined again.
The results are shown in terms of the number of positive subjects/the number of total subjects.

IC50 [2]	IC50 (Tyrosinase [3])	tyrosinase inhibition activity, fold higher than that of kojic acid (Tyrosinase [3])	Compound	inhibition of tyrosinase (in words) (tyrosinase [1])	number of positive subjects/the number of total subjects (human skin; 48 hours later)	number of positive subjects/the number of total subjects (human skin; 96 hours later)	skin response in patch test (in words) (human skin; after 48 hours)	skin response in patch test (in words) (human skin; after 96 hours)	safety to human skin (in words) (human skin)	radical-scavenging activity (in words) [2]
70 µM	4 µM	20 fold	COc1cc(C=CC(=O)OCc2cc(=O)c(O)co2)ccc1O [Example 2, 2-(4-hydroxy-3-methoxycinnamoyl) oxymethyl-5-hydroxy-4H-pyran-4-one]	–	1/30	0/30	weak positive response	disappeared	safe to human skin	–
12.3 µM	4 µM	20 fold	O=C(C=Cc1ccc(O)c(O)c1)OCc1cc(=O)c(O)co1 [Example 1, 2-(3,4-dihydroxycinnamoyl)oxymethyl-5-hydroxy-4H-pyran-4-one]	–	1/30	0/30	weak positive response	disappeared	safe to human skin	strong activity as a radical scavenger
29.2 µM	–	–	O=C1O[C@H]([C@@H](O)CO)C(O)=C1O [Vitamin C, reference compound]	–	–	–	–	–	–	–

More lines, now with the values behind:

Compound	IC50 [2]	IC50 (Tyrosinase [3])	tyrosinase inhibition activity, fold higher than that of kojic acid (Tyrosinase [3])	inhibition of tyrosinase (in words) (tyrosinase [1])	number of positive subjects/the number of total subjects (human skin; 48 hours later)	number of positive subjects/the number of total subjects (human skin; 96 hours later)	skin response in patch test (in words) (human skin; after 48 hours)	skin response in patch test (in words) (human skin; after 96 hours)	safety to human skin (in words) (human skin)	radical-scavenging activity (in words) [2]
O=c1cc(CO)occ1O [Kojic acid]	–	–	–	strongly inhibits the action of tyrosinase	–	–	–	–	–	–
Oc1ccc(O)cc1 [Hydroquinone, hydroquinone, reference compound]	25.4 µM	–	–	–	–	–	–	–	–	–
tocopherol [Vitamin E, reference compound]	34.8 µM	–	–	–	–	–	–	–	–	–
